ChEMBL document CHEMBL1201862, “PubChem BioAssay data set” (2004)
Calls of active or inactive are those of the source.

Tests used:
[1] = target: Likely tRNA 2'-phosphotransferase (Candida albicans (strain SC5314 / ATCC MYA-2876) (Yeast), UniProt Q5A7N4); assay: inhibition of Candida TPT1 enzyme activity – biochemical, fluorescence polarization, dose response (AID 2160)
[2] = target: Bifunctional protein GlmU (Mycobacterium tuberculosis, UniProt P9WMN3); assay: Inhibitors of Mycobacterial Glucosamine-1-phosphate acetyl transferase (GlmU). Secondary screen.; parameters: species or system Mycobacterium tuberculosis H37Rv
[3] = target: T1, Phospholipase A2 (Homo sapiens, UniProt P04054); assay: phospholipase A2 activity inhibition – biochemical, set 2, counter-screen for ATG4B inhibitor project, dose response (AID 588586); format: functional
[4] = HEK-293T viability loss after treatment – luminescence, T-cell screen hits, cytotoxicity control for TCR NF-kB inhibitor project, dose response (AID 489026); format: functional, cell-based;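 also: cells exposed to compound about 14 hours before the viability readout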
[5] = target: T2, Serine/threonine-protein phosphatase (Candida dubliniensis (strain CD36 / CBS 7987 / NCPF 3949 / NRRLY-17841) (Yeast), UniProt B9W6M3); assay: blockers of CaCl2-induced CDRE-lacZ signaling – S. cerevisiae, luminescence, secondary, dose response (AID 2388); format: functional, cell-based;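 also: yeast reporter cells carrying a calcineurin-responsive lacZ construct stimulated with calcium chloride; luminescent beta-galactosidase reporter signal in whole cells rather than isolated phosphatase activity; potency for inhibition where a drop in reporter signal means calcineurin blockade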
T2 sequence (B9W6M3 whole entry): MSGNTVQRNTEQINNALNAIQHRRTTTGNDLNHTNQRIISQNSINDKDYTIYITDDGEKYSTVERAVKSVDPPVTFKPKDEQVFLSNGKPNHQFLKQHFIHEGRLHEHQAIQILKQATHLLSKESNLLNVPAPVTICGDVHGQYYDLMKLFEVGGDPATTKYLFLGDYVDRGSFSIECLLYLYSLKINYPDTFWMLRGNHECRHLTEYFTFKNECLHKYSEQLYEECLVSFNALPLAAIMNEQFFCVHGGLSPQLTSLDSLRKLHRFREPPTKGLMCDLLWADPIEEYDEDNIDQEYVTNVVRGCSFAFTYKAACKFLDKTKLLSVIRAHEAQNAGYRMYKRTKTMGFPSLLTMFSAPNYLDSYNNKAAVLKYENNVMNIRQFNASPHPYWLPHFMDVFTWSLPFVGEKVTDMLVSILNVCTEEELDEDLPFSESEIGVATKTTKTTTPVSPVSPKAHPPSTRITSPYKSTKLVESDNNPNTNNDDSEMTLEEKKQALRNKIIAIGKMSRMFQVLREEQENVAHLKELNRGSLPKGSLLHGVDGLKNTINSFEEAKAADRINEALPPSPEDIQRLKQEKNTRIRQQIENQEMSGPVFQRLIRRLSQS

[6] = target: T1, Phospholipase A2; format: functional
[7] = target: T3, Mannose-6-phosphate isomerase (Homo sapiens, UniProt P34949); assay: MPI inhibition at elevated mannose 6-phosphate – biochemical, fluorescence intensity, high mannose 6-phosphate, primary screen (AID 1220)
T3 sequence (P34949 whole entry): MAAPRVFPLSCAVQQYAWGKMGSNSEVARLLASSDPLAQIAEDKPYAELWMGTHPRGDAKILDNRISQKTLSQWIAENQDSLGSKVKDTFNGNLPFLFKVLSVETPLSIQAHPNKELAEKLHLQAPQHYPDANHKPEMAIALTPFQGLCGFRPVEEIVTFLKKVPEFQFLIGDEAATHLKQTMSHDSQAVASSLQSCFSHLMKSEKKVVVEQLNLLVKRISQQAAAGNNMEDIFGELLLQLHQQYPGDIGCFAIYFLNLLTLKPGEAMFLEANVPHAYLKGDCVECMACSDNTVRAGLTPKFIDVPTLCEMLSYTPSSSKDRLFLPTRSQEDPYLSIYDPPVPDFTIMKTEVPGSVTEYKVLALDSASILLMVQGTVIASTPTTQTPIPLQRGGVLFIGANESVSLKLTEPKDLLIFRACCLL

[8] = target: T4, Histone-lysine N-methyltransferase NSD2 (Homo sapiens, UniProt O96028); format: biochemical
T4 sequence (O96028 whole entry): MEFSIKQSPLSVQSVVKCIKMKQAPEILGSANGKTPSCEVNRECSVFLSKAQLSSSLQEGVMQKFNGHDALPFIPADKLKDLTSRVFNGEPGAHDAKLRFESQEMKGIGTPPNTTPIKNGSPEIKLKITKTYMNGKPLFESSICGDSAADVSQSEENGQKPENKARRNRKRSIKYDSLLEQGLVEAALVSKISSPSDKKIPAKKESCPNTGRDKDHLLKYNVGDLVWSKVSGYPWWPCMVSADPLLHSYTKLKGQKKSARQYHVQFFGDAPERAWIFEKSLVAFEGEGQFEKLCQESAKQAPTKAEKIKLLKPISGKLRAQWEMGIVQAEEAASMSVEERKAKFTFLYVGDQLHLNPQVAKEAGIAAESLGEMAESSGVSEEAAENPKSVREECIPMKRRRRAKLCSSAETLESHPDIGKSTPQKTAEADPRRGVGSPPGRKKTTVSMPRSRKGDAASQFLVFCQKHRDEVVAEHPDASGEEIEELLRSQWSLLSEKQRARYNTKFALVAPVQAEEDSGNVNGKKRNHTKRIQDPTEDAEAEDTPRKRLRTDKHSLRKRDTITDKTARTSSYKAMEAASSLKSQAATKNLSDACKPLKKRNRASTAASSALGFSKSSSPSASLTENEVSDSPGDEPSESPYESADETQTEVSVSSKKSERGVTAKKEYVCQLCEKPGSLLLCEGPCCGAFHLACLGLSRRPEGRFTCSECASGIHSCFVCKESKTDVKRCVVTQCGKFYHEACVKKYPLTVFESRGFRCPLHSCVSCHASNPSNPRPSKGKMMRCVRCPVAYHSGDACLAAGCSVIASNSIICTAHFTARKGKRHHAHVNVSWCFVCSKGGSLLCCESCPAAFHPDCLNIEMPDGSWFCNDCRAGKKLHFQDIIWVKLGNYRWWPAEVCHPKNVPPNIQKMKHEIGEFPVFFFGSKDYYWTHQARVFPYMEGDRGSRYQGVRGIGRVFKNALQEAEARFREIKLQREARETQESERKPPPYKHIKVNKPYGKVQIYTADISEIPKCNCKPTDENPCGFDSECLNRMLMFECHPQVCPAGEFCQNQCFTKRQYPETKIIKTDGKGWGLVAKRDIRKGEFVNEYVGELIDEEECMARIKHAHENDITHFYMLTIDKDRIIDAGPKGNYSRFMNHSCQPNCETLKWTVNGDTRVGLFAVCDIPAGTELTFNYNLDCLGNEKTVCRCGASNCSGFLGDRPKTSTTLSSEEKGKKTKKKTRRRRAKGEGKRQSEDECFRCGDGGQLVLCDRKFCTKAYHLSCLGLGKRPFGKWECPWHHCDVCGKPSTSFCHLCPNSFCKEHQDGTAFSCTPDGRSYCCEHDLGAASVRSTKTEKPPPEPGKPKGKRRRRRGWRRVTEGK

T1 sequence (P04054 whole entry): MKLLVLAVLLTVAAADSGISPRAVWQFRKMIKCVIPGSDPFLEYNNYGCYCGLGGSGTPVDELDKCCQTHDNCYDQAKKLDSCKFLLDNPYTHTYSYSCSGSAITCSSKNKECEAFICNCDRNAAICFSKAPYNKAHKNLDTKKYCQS
Chain of Bifunctional protein GlmU (P9WMN3 whole entry): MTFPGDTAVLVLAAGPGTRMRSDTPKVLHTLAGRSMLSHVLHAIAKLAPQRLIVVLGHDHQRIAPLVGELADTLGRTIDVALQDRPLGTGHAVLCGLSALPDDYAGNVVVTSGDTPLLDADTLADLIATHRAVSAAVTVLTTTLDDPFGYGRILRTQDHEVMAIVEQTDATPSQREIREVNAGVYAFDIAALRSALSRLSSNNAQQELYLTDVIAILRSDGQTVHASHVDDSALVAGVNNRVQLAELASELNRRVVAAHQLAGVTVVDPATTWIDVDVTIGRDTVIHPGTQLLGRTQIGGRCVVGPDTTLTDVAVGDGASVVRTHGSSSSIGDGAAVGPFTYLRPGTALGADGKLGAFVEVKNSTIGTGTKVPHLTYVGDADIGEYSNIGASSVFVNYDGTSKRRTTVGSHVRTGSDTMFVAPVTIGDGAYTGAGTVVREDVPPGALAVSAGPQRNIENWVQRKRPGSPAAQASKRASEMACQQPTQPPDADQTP
Chain of Likely tRNA 2'-phosphotransferase (Q5A7N4 whole entry): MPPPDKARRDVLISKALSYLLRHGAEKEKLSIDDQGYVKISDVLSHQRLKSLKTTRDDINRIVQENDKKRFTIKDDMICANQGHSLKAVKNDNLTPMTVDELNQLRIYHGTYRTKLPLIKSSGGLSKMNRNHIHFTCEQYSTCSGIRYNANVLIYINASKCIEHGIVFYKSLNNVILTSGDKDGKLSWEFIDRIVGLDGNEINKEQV

Question: Which results are given for `CC(C)C(C(=O)O)N1C(=O)/C(=C/C=C/c2ccco2)SC1=S` (stereo not drawn)?
Answer: IC50 [1]: 20.5 µM (not active); IC50 [2]: 47.9 µM (active)

Question: Which IC50 [3] does the source give for `Oc1ccc2ccccc2c1/C=N/Nc1nnc(-c2ncc[nH]2)c2ccccc12` here?
Answer: Its IC50 is 2.47 µM (active).

Question: What about the IC50 [4] of the same compound?
Answer: Its IC50 is > 80 µM (inactive).

Question: What about the EC50 [5] of the same compound?
Answer: Its EC50 is > 180 µM (inactive).

Question: What about the IC50 [6] of the same compound?
Answer: The IC50 was 1.51 µM (active).

Question: For `O=C1CCN2C=Nc3cccc4ccc1c2c34`, which IC50 [7] is on record?
Answer: Its IC50 is > 58 µM (not active).

Question: What about the AC50 [8] of the same compound?
Answer: The AC50 was 9.91 µM (active).
